Experimental data from ChEMBL document CHEMBL4765493, “Berberine Directly Targets the NEK7 Protein to Block the NEK7-NLRP3 Interaction and Exert Anti-inflammatory Activity” (J Med Chem, 2021).
Activity calls are given as the source filed them. The calls are words filed in the database; no cut-off is given here.

Key:
[1] = Inhibition of LPS + nigericin-induced IL-1beta secretion in PMA-differentiated human THP-1 cells at 20 uM incubated for 24 hrs by ELISA; type: functional
[2] = molecular target: 28S rRNA (cytosine-C(5))-methyltransferase (Homo sapiens) (UniProt Q96P11); assay: Binding affinity to NSUN5 in PMA-differentiated human THP-1 cells incubated for 2 hrs by SDS-PAGE and LC-MS/MS analysis; type: cell-based
[3] = molecular target: T1, Serine/threonine-protein kinase Nek7 (Homo sapiens, UniProt Q8TDX7); assay: Binding affinity to NEK7 in PMA-differentiated human THP-1 cells incubated for 2 hrs by immunoblot analysis; type: cell-based
Target sequence in this assay (Q8TDX7 whole entry, looked up): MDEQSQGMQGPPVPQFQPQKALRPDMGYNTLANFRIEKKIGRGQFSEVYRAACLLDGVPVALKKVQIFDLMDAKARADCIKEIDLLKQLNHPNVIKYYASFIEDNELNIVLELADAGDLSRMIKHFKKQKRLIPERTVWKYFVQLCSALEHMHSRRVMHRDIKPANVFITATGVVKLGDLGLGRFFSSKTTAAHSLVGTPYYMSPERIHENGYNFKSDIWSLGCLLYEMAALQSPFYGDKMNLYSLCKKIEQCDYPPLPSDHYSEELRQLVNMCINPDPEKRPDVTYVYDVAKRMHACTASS

[4] = molecular target: T1, Serine/threonine-protein kinase Nek7; assay: Binding affinity to NEK7 in PMA-differentiated human THP-1 cells incubated for 2 hrs by SDS-PAGE and LC-MS/MS analysis; type: cell-based
Target sequence in this assay (Q8TDX7 whole entry, looked up): as above

[5] = molecular target: T2, Serine/threonine-protein phosphatase PGAM5, mitochondrial (Homo sapiens) (UniProt Q96HS1); assay: Binding affinity to […] in PMA-differentiated human THP-1 cells incubated for 2 hrs by SDS-PAGE and LC-MS/MS analysis; type: cell-based
T2 sequence (whole entry): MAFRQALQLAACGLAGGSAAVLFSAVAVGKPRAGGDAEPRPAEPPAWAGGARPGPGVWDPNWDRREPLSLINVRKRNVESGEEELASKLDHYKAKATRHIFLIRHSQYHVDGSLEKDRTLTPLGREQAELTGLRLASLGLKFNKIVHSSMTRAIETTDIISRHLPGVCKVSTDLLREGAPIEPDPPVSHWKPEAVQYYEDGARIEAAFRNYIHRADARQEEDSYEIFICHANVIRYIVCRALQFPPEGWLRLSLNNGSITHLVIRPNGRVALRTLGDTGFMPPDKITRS

[6] = molecular target: DIMT1 dimethyladenosine transferase 1 (Homo sapiens) (UniProt Q9UNQ2); assay: Binding affinity to DIM1 in PMA-differentiated human THP-1 cells incubated for 2 hrs by SDS-PAGE and LC-MS/MS analysis
[7] = molecular target: T1, Serine/threonine-protein kinase Nek7; assay: Binding affinity to human recombinant NEK7 incubated for 2 hrs by pull down assay; settings: THP-1
Target sequence in this assay (Q8TDX7 whole entry, looked up): as the sequence (Q8TDX7 whole entry, looked up) above

[8] = molecular target: Nicotinamide/nicotinic acid mononucleotide adenylyltransferase 1 (Homo sapiens) (UniProt Q9HAN9); assay: Binding affinity to NMNAT1 in PMA-differentiated human THP-1 cells incubated for 2 hrs by SDS-PAGE and LC-MS/MS analysis; type: cell-based
[9] = molecular target: T1, Serine/threonine-protein kinase Nek7; assay: Binding affinity to human recombinant NEK7 incubated for 2 hrs in presence of BBR by pull down assay
Target sequence in this assay (Q8TDX7 whole entry, looked up): as the sequence (Q8TDX7 whole entry, looked up) above

[10] = molecular target: T3, Uridine-cytidine kinase 2 (Homo sapiens) (UniProt Q9BZX2); assay: Binding affinity to UCK2 in PMA-differentiated human THP-1 cells incubated for 2 hrs by SDS-PAGE and LC-MS/MS analysis; type: cell-based
T3 sequence (whole entry): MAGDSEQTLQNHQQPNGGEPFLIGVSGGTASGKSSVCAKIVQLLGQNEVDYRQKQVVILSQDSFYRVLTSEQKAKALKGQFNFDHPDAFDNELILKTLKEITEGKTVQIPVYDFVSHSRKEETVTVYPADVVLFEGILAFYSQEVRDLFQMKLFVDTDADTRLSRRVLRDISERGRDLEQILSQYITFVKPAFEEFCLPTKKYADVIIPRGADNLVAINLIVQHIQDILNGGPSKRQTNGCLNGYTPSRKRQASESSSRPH

[11] = molecular target: T1, Serine/threonine-protein kinase Nek7; assay: Binding affinity to human recombinant NEK7 incubated for 2 hrs by pull down assay relative to control; settings: THP-1
Target sequence in this assay (Q8TDX7 whole entry, looked up): as the sequence (Q8TDX7 whole entry, looked up) above

THP-1 [12] = assay: Inhibition of NEK7-NLRP3 interaction in human THP-1 cells incubated for 24 hrs by Co-IP assay; type: cell-based
[13] = Inhibition of LPS + nigericin-induced IL-1beta secretion in PMA-differentiated human THP-1 cells incubated for 1 to 24 hrs by Immunoblot analysis; type: functional, cell-based
Mus musculus [14] = assay: Antiinflammatory activity in NEK7 wild type C57BL/6 mouse model assessed as reduction in lesion in heart in at 5 mg/kg, ip dosed three times every 12 hrs followed by LPS challenge by H and E staining; type: functional, organism-based
THP-1 [15] = assay: Inhibition of LPS + nigericin-induced NLRP3 expression in human THP-1 cells at 2.5 to 20 uM pre-treatment for 4 hrs before LPS + nigericin by immunoblot analysis; type: functional, cell-based; settings: dose 2.5-20 µM
BMDM [16] = assay: Inhibition of LPS + nigericin-induced NLRP3 expression in mouse BMDM at 2.5 to 20 uM pre-treatment for 4 hrs before LPS + nigericin by immunoblot analysis; type: functional, tissue-based; settings: dose 2.5-20 µM
[17] = molecular target: T1, Serine/threonine-protein kinase Nek7; assay: Inhibition of purified recombinant human NEK7 incubated for 15 mins before ATP and substrate addition and further incubated for 40 mins by ADPGlo kinase assay
Target sequence in this assay (Q8TDX7 whole entry): as the sequence (Q8TDX7 whole entry, looked up) above

HEK293 [18] = assay: Inhibition of NEK7 R121A mutant-NLRP3 interaction (unknown origin) expressed in HEK293 cells at 10 uM incubated for 24 hrs by Co-IP assay; type: cell-based; settings: Homo sapiens
HEK293 [19] = assay: Inhibition of NEK7-NLRP3 interaction (unknown origin) expressed in HEK293 cells incubated for 24 hrs by Co-IP assay; type: cell-based; settings: Homo sapiens
[20] = Toxicity in mouse BMDM cells assessed as induction of apoptosis by measuring cleaved caspase-7 levels up to 40 uM incubated for 24 hrs by immunoblot analysis; type: cell-based
[21] = Toxicity in mouse BMDM cells assessed as induction of cell death up to 40 uM incubated for 24 hrs by MTS assay; type: cell-based
THP-1 [22] = assay: Inhibition of LPS + nigericin-induced IL-1beta secretion in human THP-1 cells pre-treatment for 4 hrs before LPS + nigericin by immunoblot analysis; type: functional, cell-based
[23] = molecular target: T1, Serine/threonine-protein kinase Nek7; assay: Binding affinity to NEK7 in PMA-differentiated human THP-1 cells at 100 uM incubated for 8 hrs by streptavidin-bead enrichment and immunoblot assay; type: cell-based
Target sequence in this assay (Q8TDX7 whole entry, looked up): as the sequence (Q8TDX7 whole entry, looked up) above

Mus musculus [24] = assay: Antiinflammatory activity in NEK7 wild type C57BL/6 mouse model assessed as reduction in inflammatory infiltration in liver at 5 mg/kg, ip dosed three times every 12 hrs followed by LPS challenge by H and E staining; type: functional, organism-based
[25] = molecular target: T1, Serine/threonine-protein kinase Nek7; assay: Binding affinity to NEK7 in PMA-differentiated human THP-1 cells assessed as reduction in Cy3-labeled target proteins at 100 uM incubated for 8 hrs using probe-16 by fluorescent gel imaging analysis; type: cell-based
Mus musculus [26] = assay: Inhibition of serum IL-1beta production in NEK7 wild type C57BL/6 mouse model at 5 mg/kg, ip dosed three times every 12 hrs followed by LPS challenge by ELISA; type: functional, organism-based
Mus musculus [27] = assay: Inhibition of serum IL-1beta production in NEK7 knockdown C57BL/6 mouse model at 5 mg/kg, ip dosed three times every 12 hrs followed by LPS challenge by ELISA; type: functional, organism-based
HEK293 [28] = assay: Inhibition of NEK7-NLRP3 interaction (unknown origin) expressed in HEK293 cells at 10 uM incubated for 24 hrs by Co-IP assay; type: cell-based; settings: Homo sapiens
Mus musculus [29] = assay: Antiinflammatory activity in NEK7 wild type C57BL/6 mouse model assessed as reduction in lesion in lung in at 5 mg/kg, ip dosed three times every 12 hrs followed by LPS challenge by H and E staining; type: functional, organism-based
THP-1 [30] = assay: Inhibition of LPS + nigericin-induced pro-IL-beta expression in human THP-1 cells at 2.5 to 20 uM pre-treatment for 4 hrs before LPS + nigericin by immunoblot analysis; type: functional, cell-based; settings: dose 2.5-20 µM
BMDM [31] = assay: Inhibition of LPS + nigericin-induced caspase-1 activation in mouse BMDM at 2.5 to 20 uM pre-treatment for 4 hrs before LPS + nigericin by immunoblot analysis; type: functional, tissue-based; settings: dose 2.5-20 µM
Mus musculus [32] = assay: Antiinflammatory activity in NEK7 wild type C57BL/6 mouse model assessed as reduction in lesion in kidney in at 5 mg/kg, ip dosed three times every 12 hrs followed by LPS challenge by H and E staining; type: functional, organism-based
BMDM [33] = assay: Inhibition of LPS + nigericin-induced IL-1beta secretion in mouse BMDM at 2.5 to 20 uM pre-treatment for 4 hrs before LPS + nigericin by immunoblot analysis; type: functional, tissue-based; settings: dose 2.5-20 µM
BMDM [34] = assay: Inhibition of LPS + nigericin-induced pro-IL-1beta expression in mouse BMDM at 2.5 to 20 uM pre-treatment for 4 hrs before LPS + nigericin by immunoblot analysis; type: functional, tissue-based; settings: dose 2.5-20 µM
[35] = Toxicity in mouse BMDM cells assessed as induction of apoptosis by measuring cleaved caspase-3 levels up to 40 uM incubated for 24 hrs by immunoblot analysis; type: cell-based
Mus musculus [36] = assay: Antiinflammatory activity in NEK7 wild type C57BL/6 mouse model assessed as reduction in lesion in spleen in at 5 mg/kg, ip dosed three times every 12 hrs followed by LPS challenge by H and E staining; type: functional, organism-based
[37] = molecular target: T1, Serine/threonine-protein kinase Nek7; assay: Binding affinity to purified recombinant human NEK7 by SPR analysis
Target sequence in this assay (Q8TDX7 whole entry): as the sequence (Q8TDX7 whole entry, looked up) above

THP-1 [38] = assay: Inhibition of LPS + nigericin-induced ASC-pyroptosome formation in human THP-1 cells at 5 to 10 uM uM pre-treatment for 4 hrs before LPS + nigericin addition by immunofluorescence analysis; type: functional, cell-based; settings: dose 5-10 µM
[39] = Toxicity in mouse BMDM cells assessed as induction of apoptosis by measuring cleaved caspase-9 levels up to 40 uM incubated for 24 hrs by immunoblot analysis; type: cell-based
THP-1 [40] = assay: Inhibition of AIM2-induced IL-1beta activation in human THP-1 cells at 10 uM pre-treatment for 2 hrs before AIM2 addition; type: functional, cell-based
THP-1 [41] = assay: Inhibition of LPS + nigericin-induced caspase-1 activation in human THP-1 cells pre-treatment for 4 hrs before LPS + nigericin by immunoblot analysis; type: functional, cell-based

Chain of DIMT1 dimethyladenosine transferase 1 (Homo sapiens) (Q9UNQ2 whole entry, looked up): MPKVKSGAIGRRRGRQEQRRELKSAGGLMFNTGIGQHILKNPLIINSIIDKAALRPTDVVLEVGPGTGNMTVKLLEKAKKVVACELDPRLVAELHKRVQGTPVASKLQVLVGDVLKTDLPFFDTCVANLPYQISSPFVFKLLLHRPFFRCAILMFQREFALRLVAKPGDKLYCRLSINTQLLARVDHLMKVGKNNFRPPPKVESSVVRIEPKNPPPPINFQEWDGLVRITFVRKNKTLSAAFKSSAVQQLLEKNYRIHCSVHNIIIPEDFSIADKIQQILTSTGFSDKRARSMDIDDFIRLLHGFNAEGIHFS
Chain of 28S rRNA (cytosine-C(5))-methyltransferase (Homo sapiens) (Q96P11 whole entry): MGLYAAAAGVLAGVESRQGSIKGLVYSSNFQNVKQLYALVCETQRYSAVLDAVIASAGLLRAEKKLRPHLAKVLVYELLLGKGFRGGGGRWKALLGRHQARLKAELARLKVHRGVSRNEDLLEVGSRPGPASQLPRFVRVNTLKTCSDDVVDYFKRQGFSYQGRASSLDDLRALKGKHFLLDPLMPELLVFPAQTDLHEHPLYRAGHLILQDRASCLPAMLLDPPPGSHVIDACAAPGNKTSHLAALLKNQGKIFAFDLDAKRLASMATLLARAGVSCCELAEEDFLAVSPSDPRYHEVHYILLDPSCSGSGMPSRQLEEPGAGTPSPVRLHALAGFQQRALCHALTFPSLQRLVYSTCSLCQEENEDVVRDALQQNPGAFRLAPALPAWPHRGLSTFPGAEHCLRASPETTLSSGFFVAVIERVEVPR
Chain of Nicotinamide/nicotinic acid mononucleotide adenylyltransferase 1 (Homo sapiens) (Q9HAN9 whole entry): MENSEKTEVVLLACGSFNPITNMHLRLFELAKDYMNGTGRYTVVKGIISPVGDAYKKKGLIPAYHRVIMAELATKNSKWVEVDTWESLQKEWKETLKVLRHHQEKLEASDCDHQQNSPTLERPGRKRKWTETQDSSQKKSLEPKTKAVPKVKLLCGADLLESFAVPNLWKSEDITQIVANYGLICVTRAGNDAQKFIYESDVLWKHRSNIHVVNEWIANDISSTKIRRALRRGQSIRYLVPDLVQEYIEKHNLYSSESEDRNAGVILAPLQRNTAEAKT

COc1cc2c(cc1OCCCNC(=O)CCCC[C@@H]1SC[C@@H]3NC(=O)N[C@@H]31)CC[n+]1cc3c(OC)c(OC)ccc3cc1-2
inhibition at 20 µM [1]: -49%

COc1ccc2cc3[n+](cc2c1OCCCCCNC(=O)CCCC[C@@H]1SC[C@@H]2NC(=O)N[C@@H]21)CCc1cc2c(cc1-3)OCO2
inhibition at 20 µM [1]: -2%

COc1c(OCCCCCNC(=O)CCCC[C@@H]2SC[C@@H]3NC(=O)N[C@@H]32)ccc2cc3[n+](cc12)CCc1cc2c(cc1-3)OCO2
inhibition at 20 µM [1]: 73%

COc1cc2c(cc1OCCOCCNC(=O)CCCC[C@@H]1SC[C@@H]3NC(=O)N[C@@H]31)CC[n+]1cc3c(OC)c(OC)ccc3cc1-2
inhibition at 20 µM [1]: 75%

COc1c(OCCOCCOCCNC(=O)CCCC[C@@H]2SC[C@@H]3NC(=O)N[C@@H]32)ccc2cc3[n+](cc12)CCc1cc2c(cc1-3)OCO2
Activity [2]: Active | Activity [3]: Active | Activity [4]: Active | Activity [5]: Active | Activity [6]: Active | Activity [7]: Active | Activity [8]: Active | inhibition at 20 µM [1]: 83% | Activity [9]: inactive | Activity [10]: Active | Activity [11]: Dose-dependent effect

COc1ccc2cc3[n+](cc2c1OC)CCc1cc2c(cc1-3)OCO2.[Cl-] [BERBERINE CHLORIDE]
inhibition (THP-1 [12]): Dose-dependent effect | IC50 [13]: 5.1 µM | Activity (Mus musculus [14]): Active | inhibition (THP-1 [15]): inactive | inhibition (BMDM [16]): inactive | IC50 [17]: 4.2 µM | inhibition (HEK293 [18]): inactive | inhibition (HEK293 [19]): Dose-dependent effect | Activity [20]: Non-Toxic | Activity [21]: Non-Toxic | inhibition (THP-1 [22]): Active | Activity [23]: Active | Activity (Mus musculus [24]): Active | Activity [25]: Active | Activity (Mus musculus [26]): Active | Activity (Mus musculus [27]): inactive | inhibition (HEK293 [28]): Active | Activity (Mus musculus [29]): Active | inhibition (THP-1 [30]): inactive | inhibition (BMDM [31]): Active | Activity (Mus musculus [32]): Active | inhibition at 20 µM [1]: 72% | inhibition (BMDM [33]): Active | inhibition (BMDM [34]): inactive | Activity [35]: Non-Toxic | Activity (Mus musculus [36]): Active | Kd [37]: 15.6 µM | inhibition (THP-1 [38]): Active | Activity [39]: Non-Toxic | inhibition (THP-1 [40]): inactive | inhibition (THP-1 [41]): Active

COc1cc2c(cc1OC)-c1cc3ccc(OC)c(OCCOCCOCCNC(=O)CCCC[C@@H]4SC[C@@H]5NC(=O)N[C@@H]54)c3c[n+]1CC2
Activity [2]: inactive | Activity [4]: inactive | Activity [5]: inactive | Activity [6]: inactive | Activity [8]: inactive | inhibition at 20 µM [1]: -78% | Activity [10]: inactive

COc1ccc2cc3[n+](cc2c1OCCCNC(=O)CCCC[C@@H]1SC[C@@H]2NC(=O)N[C@@H]21)CCc1cc2c(cc1-3)OCO2
inhibition at 20 µM [1]: -92%

COc1c(OCCCNC(=O)CCCC[C@@H]2SC[C@@H]3NC(=O)N[C@@H]32)ccc2cc3[n+](cc12)CCc1cc2c(cc1-3)OCO2
inhibition at 20 µM [1]: 38%
